In patent US20230141603A1, “BENZODIAZEPINE DERIVATIVES AS GABA A GAMMA1 PAM” (Hoffmann-La Roche Inc., priority 2021, published 2023):

These compounds were tested against T1, h-GABAA α2β2γ1 (Homo sapiens, UniProt P47869+Q8N1C3) (assay: Radioligand binding assay, [3H]RO7239181 competition, HEK293F membranes).
T1 sequence (P47869 29-451): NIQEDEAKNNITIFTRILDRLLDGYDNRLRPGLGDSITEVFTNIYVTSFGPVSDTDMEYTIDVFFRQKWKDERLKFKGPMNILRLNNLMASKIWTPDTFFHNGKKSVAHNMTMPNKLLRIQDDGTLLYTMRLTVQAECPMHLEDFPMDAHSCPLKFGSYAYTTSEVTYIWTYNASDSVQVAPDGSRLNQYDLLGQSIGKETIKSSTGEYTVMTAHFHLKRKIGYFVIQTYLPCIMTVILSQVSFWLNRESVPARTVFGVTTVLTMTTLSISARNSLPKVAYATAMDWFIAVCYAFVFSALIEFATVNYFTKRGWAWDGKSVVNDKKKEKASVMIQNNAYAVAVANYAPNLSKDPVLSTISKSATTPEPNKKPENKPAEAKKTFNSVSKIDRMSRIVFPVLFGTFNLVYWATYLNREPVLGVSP
T1 sequence (P47870 25-512 partner limits assumed): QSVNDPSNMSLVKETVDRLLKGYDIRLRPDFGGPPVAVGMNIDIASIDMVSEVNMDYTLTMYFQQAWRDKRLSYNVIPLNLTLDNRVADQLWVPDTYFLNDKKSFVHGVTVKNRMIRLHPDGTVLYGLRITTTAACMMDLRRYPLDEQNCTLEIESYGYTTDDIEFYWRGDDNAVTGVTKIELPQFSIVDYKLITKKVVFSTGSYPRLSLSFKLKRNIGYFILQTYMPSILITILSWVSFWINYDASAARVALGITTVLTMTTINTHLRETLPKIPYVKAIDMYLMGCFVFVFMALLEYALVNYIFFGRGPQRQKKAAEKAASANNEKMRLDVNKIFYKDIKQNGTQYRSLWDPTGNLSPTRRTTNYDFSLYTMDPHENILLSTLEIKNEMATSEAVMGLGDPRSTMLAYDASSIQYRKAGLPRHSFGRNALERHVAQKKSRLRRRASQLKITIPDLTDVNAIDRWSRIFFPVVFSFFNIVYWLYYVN
T1 sequence (Q8N1C3 36-465): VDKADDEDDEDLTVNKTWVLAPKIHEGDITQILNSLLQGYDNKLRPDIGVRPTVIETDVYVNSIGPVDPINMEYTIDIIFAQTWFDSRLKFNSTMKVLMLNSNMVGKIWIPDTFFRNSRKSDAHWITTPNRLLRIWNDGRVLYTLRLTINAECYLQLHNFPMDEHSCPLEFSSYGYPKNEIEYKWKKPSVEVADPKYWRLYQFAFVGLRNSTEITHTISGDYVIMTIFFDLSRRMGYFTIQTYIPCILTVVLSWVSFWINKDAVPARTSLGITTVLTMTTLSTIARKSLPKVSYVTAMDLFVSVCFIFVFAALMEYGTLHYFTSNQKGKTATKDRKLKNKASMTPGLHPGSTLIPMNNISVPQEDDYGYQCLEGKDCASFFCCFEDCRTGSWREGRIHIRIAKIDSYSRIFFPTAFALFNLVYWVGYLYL
Parameters: signal peptide of human GABAA α5 subunit (Met1 to Ser31), replacing the α2 signal peptide (N); expressed in transfected cells; host or cells: HEK293F cells (ThermoFisher R79007), membranes

| SMILES | Ki [nM] |
| --- | --- |
| Fc1cccc(F)c1C1=NCc2nnc(-c3cccnn3)n2-c2ccc(Br)c(Cl)c21 [Example 104, 8-bromo-7-chloro-6-(2,6-difluorophenyl)-1-pyridazin-3-yl-4H-[1,2,4]triazolo[4,3-a][1,4]benzodiazepine] | 2.3 |
| O=c1[nH]nc2n1-c1ccc(Cl)c(Cl)c1C(c1ncccc1F)=NC2 [Example 59, 7,8-dichloro-6-(3-fluoro-2-pyridyl)-2,4-dihydro-[1,2,4]triazolo[4,3-a][1,4]benzodiazepin-1-one] | 26.3 |
| Cn1cc(-c2nnc3n2-c2ccc(Cl)c(Cl)c2C(c2ncccc2F)=NC3)cn1 [Example 58, 7,8-dichloro-6-(3-fluoro-2-pyridyl)-1-(1-methylpyrazol-4-yl)-4H-[1,2,4]triazolo[4,3-a][1,4]benzodiazepine] | 33.1 |
| O=c1[nH]nc2n1-c1ccc(Cl)c(Cl)c1C(c1c(F)cccc1F)=NC2 [Example 9, 7,8-dichloro-6-(2,6-difluorophenyl)-2,4-dihydro-[1,2,4]triazolo[4,3-a][1,4]benzodiazepin-1-one] | 8 |
| Fc1cccnc1C1=NCc2nnc(-c3cccnn3)n2-c2ccc(Br)c(Cl)c21 [Example 45, 8-bromo-7-chloro-6-(3-fluoro-2-pyridyl)-1-pyridazin-3-yl-4H-[1,2,4]triazolo[4,3-a][1,4]benzodiazepine] | 15.8 |
| Cc1ccc2c(c1Cl)C(c1c(F)cccc1F)=NCc1nnc(-c3cccnn3)n1-2 [Example 48, 7-chloro-6-(2,6-difluorophenyl)-8-methyl-1-pyridazin-3-yl-4H-[1,2,4]triazolo[4,3-a][1,4]benzodiazepine] | 8.3 |
| Cc1ccc2c(c1Cl)C(c1c(F)cccc1F)=NCc1nncn1-2 [Example 17, 7-chloro-6-(2,6-difluorophenyl)-8-methyl-4H-[1,2,4]triazolo[4,3-a][1,4]benzodiazepine] | 19.8 |
| Fc1cccc(F)c1C1=NCc2nnc(C3CCOCC3)n2-c2ccc(Cl)c(Cl)c21 [Example 11, 7,8-dichloro-6-(2,6-difluorophenyl)-1-tetrahydropyran-4-yl-4H-[1,2,4]triazolo[4,3-a][1,4]benzodiazepine] | 49.1 |
| COc1ccc2c(c1Cl)C(c1c(F)cccc1F)=NCc1nnc(-c3ccncn3)n1-2 [Example 61, 7-chloro-6-(2,6-difluorophenyl)-8-methoxy-1-pyrimidin-4-yl-4H-[1,2,4]triazolo[4,3-a][1,4]benzodiazepine] | 77.6 |
| CO[C@H]1C[C@H](c2nnc3n2-c2ccc(Cl)c(Cl)c2C(c2c(F)cccc2F)=NC3)C1 [Example 91, trans-7,8-dichloro-6-(2,6-difluorophenyl)-1-(3-methoxycyclobutyl)-4H-[1,2,4]triazolo[4,3-a][1,4]benzodiazepine] | 36.3 |
| Fc1ccccc1C1=NCc2nnc(-c3cccnn3)n2-c2ccc(C(F)(F)F)c(Cl)c21 [Example 27, 7-chloro-6-(2-fluorophenyl)-1-pyridazin-3-yl-8-(trifluoromethyl)-4H-[1,2,4]triazolo[4,3-a][1,4]benzodiazepine] | 84.5 |
| Cn1cc(-c2nnc3n2-c2ccc(C(F)(F)F)c(Cl)c2C(c2ncccc2F)=NC3)cn1 [Example 70, 7-chloro-6-(3-fluoro-2-pyridyl)-1-(1-methylpyrazol-4-yl)-8-(trifluoromethyl)-4H-[1,2,4]triazolo[4,3-a][1,4]benzodiazepine] | 41.4 |
| Fc1ccccc1C1=NCc2nnc(-c3cccnn3)n2-c2ccc(Cl)c(Cl)c21 [Example 10, 7,8-dichloro-6-(2-fluorophenyl)-1-pyridazin-3-yl-4H-[1,2,4]triazolo[4,3-a][1,4]benzodiazepine] | 9.5 |
| Fc1cccc(F)c1C1=NCc2nncn2-c2ccc(I)c(Cl)c21 [Example 34, 7-chloro-6-(2,6-difluorophenyl)-8-iodo-4H-[1,2,4]triazolo[4,3-a][1,4]benzodiazepine] | 10.1 |
| Fc1ccccc1C1=NCc2nnc(C3CC3)n2-c2ccc(Br)c(Cl)c21 [Example 2, 8-bromo-7-chloro-1-cyclopropyl-6-(2-fluorophenyl)-4H-[1,2,4]triazolo[4,3-a][1,4]benzodiazepine] | 47.9 |
| Fc1cccnc1C1=NCc2nncn2-c2ccc(Br)c(Cl)c21 [Example 29, 8-bromo-7-chloro-6-(3-fluoro-2-pyridyl)-4H-[1,2,4]triazolo[4,3-a][1,4]benzodiazepine] | 47.4 |
| Fc1cccnc1C1=NCc2nnc(C3CC3)n2-c2ccc(Br)c(Cl)c21 [Example 77, 8-bromo-7-chloro-1-cyclopropyl-6-(3-fluoro-2-pyridyl)-4H-[1,2,4]triazolo[4,3-a][1,4]benzodiazepine] | 19.6 |
| OCc1nnc2n1-c1ccc(Br)c(Cl)c1C(c1c(F)cccc1F)=NC2 [Example 33, [8-bromo-7-chloro-6-(2,6-difluorophenyl)-4H-[1,2,4]triazolo[4,3-a][1,4]benzodiazepin-1-yl]methanol] | 12.7 |
| Cc1nnc2n1-c1ccc(Br)c(Cl)c1C(c1c(F)cccc1Cl)=NC2 [Example 50, 8-bromo-7-chloro-6-(2-chloro-6-fluoro-phenyl)-1-methyl-4H-[1,2,4]triazolo[4,3-a][1,4]benzodiazepine] | 4.7 |
| Fc1cccnc1C1=NCc2nnc(-c3cccnn3)n2-c2ccc(Cl)c(Cl)c21 [Example 54, 7,8-dichloro-6-(3-fluoro-2-pyridyl)-1-pyridazin-3-yl-4H-[1,2,4]triazolo[4,3-a][1,4]benzodiazepine] | 30.2 |
| Fc1cccnc1C1=NCc2nnc(-c3ccncn3)n2-c2ccc(Br)c(Cl)c21 [Example 46, 8-bromo-7-chloro-6-(3-fluoro-2-pyridyl)-1-pyrimidin-4-yl-4H-[1,2,4]triazolo[4,3-a][1,4]benzodiazepine] | 25.3 |
